Measurements: patent US20050124607A1, “5-Substituted quinazolinone compounds useful as alpha 1A/B adrenergic receptor antagonists” (priority 2003, published 2005)
Where a name gives a salt, the structure may show the parent alone.

`COc1cc2[nH]c(N3CCCN(C(=O)N4CCOCC4)CC3)nc(=O)c2c(C)c1OC` (as salt: HCl) [Example 137, 6,7-Dimethoxy-5-meth-yl-2-[4-(morpho-line-4-carbo-nyl)-[1,4]diazepan-1-yl]-1H-quina-zolin-4-one] showed a melting point of 236.6 to 237.7 °C.
With `COc1cc2nc(N3CCN(C(=O)CCC(C)C)CC3)[nH]c(=O)c2c(OC)c1OC` (as salt: salt) [Example A-1, 5,6,7-Trimethoxy-2-[4-(4-methyl-pentanoyl)-piperazin-1-yl]-1H-quinazolin-4-one] the melting point was 198 to 201 °C.
Compound `CCN(C)Cc1ccc2c(c1)CN(c1nc(=O)c3c(OC)c(OC)c(OC)cc3[nH]1)CC2` [Example 1, 2-{7-[(Ethyl-methyl-ami-no)-methyl]-3,4-di-hydro-1H-isoquinolin-2-yl}-5,6,7-tri-methoxy-1H-quina-zolin-4-one] has a melting point of 161.4 to 163.9 °C.
With `CCN(C)Cc1ccc2c(c1)CN(c1nc(=O)c3c(C)c(OC)c(OC)cc3[nH]1)CC2` [Example 2, 2-{7-[(Ethyl-methyl-ami-no)-methyl]-3,4-di-hydro-1H-isoquinolin-2-yl}-6,7-di-methoxy-5-meth-yl-1H-quinazolin-4-one] the melting point was 189.4 to 204.6 °C.
In the case of `CCN(C)Cc1cccc2c1CCN(c1nc(=O)c3c(OC)c(OC)c(OC)cc3[nH]1)C2` [Example 3, 2-{5-[(Ethyl-methyl-ami-no)-methyl]-3,4-di-hydro-1H-isoquinolin-2-yl}-5,6,7-tri-methoxy-1H-quinazolin-4-one], the melting point was 214 to 216.9 °C.
`CNCc1ccc2c(c1)CN(c1nc(=O)c3c(OC)c(OC)c(OC)cc3[nH]1)CC2` [Example 4, 5,6,7-Trimethoxy-2-(7-meth-ylaminomethyl-3,4-di-hydro-1H-isoquino-lin-2-yl)-1H-quina-zolin-4-one] showed a melting point of 178.1 to 180.9 °C.
Work on `CNCc1cccc2c1CCN(c1nc(=O)c3c(C)c(OC)c(OC)cc3[nH]1)C2` [Example 6, 6,7-Dimethoxy-5-meth-yl-2-(5-methyl-aminomethyl-3,4-di-hydro-1H-isoquinolin-2-yl)-1H-quin-azolin-4-one] yielded a melting point of 241.9 to 245.5 °C.
Compound `COc1cc2c(cc1OC)CN(c1cc(=O)c3cc(Cl)c(Cl)cc3[nH]1)CC2` [Example 7, 6,7-Dichloro-2-(6,7-di-methoxy-3,4-dihydro-1H-iso-quinolin-2-yl)-1H-quino-lin-4-one] has a melting point of 266 to 271 °C.
In the case of `CNCC(=O)N(C)Cc1cccc2c1CCN(c1nc(=O)c3c(C)c(OC)c(OC)cc3[nH]1)C2` [Example 8, N-[2-(6,7-Dimethoxy-5-meth-yl-4-oxo-1,4-di-hydro-quina-zolin-2-yl)-1,2,3,4-tetrahydro-iso-quinolin-5-ylmethyl]-N-meth-yl-2-methyl-amino-acetamide], the melting point was 208.8 to 212 °C.
`COc1cc2[nH]c(N3CCc4c(cccc4/N=C4\CCCN4C)C3)nc(=O)c2c(C(C)C)c1OC` [Example 9, 5-Isopropyl-6,7-di-methoxy-2-{5-[1-meth-yl-pyrolidin-(2E)-ylidene-amino]-3,4-di-hydro-1H-iso-quinolin-2-yl}-1H-quina-zolin-4-one] showed a melting point of 196 to 200 °C.
`COc1cc2[nH]c(N3CCN(c4cccc(C)n4)CC3)nc(=O)c2c(OC)c1OC` [Example 24, 5,6,7-Trimethoxy-2-[4-(6-meth-yl-pyridin-2-yl)-pipe-razin-1-yl]-1H-quina-zolin-4-one] showed a melting point of 231.1 to 232.2 °C.
`COc1cc2[nH]c(N3CCN(c4cc(C)ccn4)CC3)nc(=O)c2c(OC)c1OC` [Example 25, 5,6,7-Trimethoxy-2-[4-(4-meth-yl-pyridin-2-yl)-pipe-razin-1-yl]-1H-quina-zolin-4-one] gave a melting point of 235.3 to 235.5 °C.
In the case of `COc1cc2[nH]c(N3CCN(c4cccc[n+]4[O-])CC3)nc(=O)c2c(OC)c1OC` [Example 26, 5,6,7-Trimethoxy-2-[4-(1-oxy-py-ridin-2-yl)-pipe-razin-1-yl]-1H-quina-zolin-4-one], the melting point was 142.8 to 147.2 °C.
With `COc1cc2[nH]c(N3CCN(c4nccn4C)CC3)nc(=O)c2c(OC)c1OC` [Example 28, 5,6,7-Trimethoxy-2-[4-(1-meth-yl-1H-imidazol-2-yl)-pipe-razin-1-yl]-1H-quina-zolin-4-one] the melting point was 227 to 229 °C.
`COc1ccnc(N2CCN(c3nc(=O)c4c(OC)c(OC)c(OC)cc4[nH]3)CC2)c1` [Example 30, 5,6,7-Trimethoxy-2-[4-(4-meth-oxy-pyridin-2-yl)-pipe-razin-1-yl]-1H-quina-zolin-4-one] showed a melting point of 229 to 231 °C.
In the case of `COc1cc2[nH]c(N3CCN(c4cccc(C)n4)CC3)nc(=O)c2c(C)c1OC` [Example 42, 6,7-Dimethoxy-5-meth-yl-2-[4-(6-methyl-py-ridin-2-yl)-piperazin-1-yl]-1H-quina-zolin-4-one], the melting point was 284.5 to 285.5 °C.
`COC[C@@H]1CCCN1CCC1CCN(c2nc(=O)c3c(C)c(OC)c(OC)cc3[nH]2)CC1` [Example 51, 6,7-Dimethoxy-2-{4-[2-((S)-2-meth-oxymethyl-pyr-rolidin-1-yl)-ethyl]-pipe-ridin-1-yl}-5-meth-yl-1H-quinazolin-4-one] gave a melting point of 83.1 to 110.9 °C.
In the case of `COC[C@H]1CCCN1CCC1CCN(c2nc(=O)c3c(C)c(OC)c(OC)cc3[nH]2)CC1` [Example 57, 6,7-Dimethoxy-2-{4-[2-((R)-2-meth-oxymethyl-pyr-rolidin-1-yl)-ethyl]-pipe-ridin-1-yl}-5-meth-yl-1H-quinazolin-4-one], the melting point was 219 to 221.9 °C.
In the case of `COc1cc2[nH]c(N3CCC(OCc4ccccc4S(=O)(=O)N(C)C)CC3)nc(=O)c2c(C)c1OC` [Example 61, 2-[1-(6,7-Dimethoxy-5-meth-yl-4-oxo-1,4-di-hydro-quinazolin-2-yl)-pipe-ridin-4-yl-oxymethyl]-N,N-dimethyl-benzene-sulfonamide], the melting point was 217.9 to 219.8 °C.
In the case of `COc1cc2[nH]c(N3CCC(Cc4ccccc4)CC3)nc(=O)c2c(OC)c1OC` [Example 63, 2-(4-Benzyl-piperidin-1-yl)-5,6,7-tri-methoxy-1H-quina-zolin-4-one], the melting point was 212 to 215 °C.
In the case of `COC[C@@H]1CCCN1CCC1CCN(c2nc(=O)c3c(OC)c(OC)c(OC)cc3[nH]2)CC1` [Example 69, 5,6,7-Trimeth-oxy-2-{4-[2-((S)-2-meth-oxymethyl-pyr-rolidin-1-yl)-ethyl]-pipe-ridin-1-yl}-1H-quina-zolin-4-one], the melting point was 78.8 to 91.6 °C.
Work on `COC[C@H]1CCCN1CCC1CCN(c2nc(=O)c3c(OC)c(OC)c(OC)cc3[nH]2)CC1` [Example 70, 5,6,7-Trimeth-oxy-2-{4-[2-((R)-2-meth-oxymethyl-pyr-rolidin-1-yl)-ethyl]-pipe-ridin-1-yl}-1H-quina-zolin-4-one] yielded a melting point of 65 to 79.1 °C.
With `COc1cc2[nH]c(N3CCC(OCc4ccccc4S(=O)(=O)N(C)C)CC3)nc(=O)c2c(OC)c1OC` [Example 77, N,N-Dimethyl-2-[1-(5,6,7-tri-methoxy-4-oxo-1,4-di-hydro-quinazolin-2-yl)-pipe-ridin-4-yloxy-methyl]-benzene-sulfonamide] the melting point was 186 to 188.2 °C.
In the case of `COc1cc2[nH]c(N3CCC(Cc4cccc(C(=O)O)c4)CC3)nc(=O)c2c(OC)c1OC` [Example 79, 3-[1-(5,6,7-Trimethoxy-4-oxo-1,4-di-hydro-quina-zolin-2-yl)-pipe-ridin-4-ylmethyl]-benzoic acid], the melting point was 245 to 249 °C.
`COc1cc2[nH]c(N3CCC(OCc4cccc(N(S(C)(=O)=O)S(C)(=O)=O)c4)CC3)nc(=O)c2c(OC)c1OC` [Example 80, N-Methane-sulfonyl-N-{3-[1-(5,6,7-tri-methoxy-4-oxo-1,4-di-hydro-quina-zolin-2-yl)-pipe-ridin-4-yloxy-methyl]-phenyl}-methane-sulfonamide] gave a melting point of 100.7 to 160.4 °C.
In the case of `COc1cc2[nH]c(N3CCC(OCc4cccc(/N=C(\C)N(C)C)c4)CC3)nc(=O)c2c(OC)c1OC` [Example 81, N,N-Dimethyl-N′-{3-[1-(5,6,7-tri-methoxy-4-oxo-1,4-di-hydro-quinazolin-2-yl)-pipe-ridin-4-yloxy-methyl]-phenyl}-acetamidine], the melting point was 56 to 64.9 °C.
`COc1cc2[nH]c(N3CCc4c(cccc4/N=C(\C)N(C)C)C3)nc(=O)c2c(C)c1OC` [Example 98, N′-[2-(6,7-Dimethoxy-5-meth-yl-4-oxo-1,4-di-hydro-quinazolin-2-yl)-1,2,3,4-tetra-hydro-iso-quinolin-5-yl]-N,N-di-methyl-acetamidine] gave a melting point of 270.9 to 273.5 °C.
`COc1cc2[nH]c(N3CCc4ccc(/N=C(\C)N(C)C)cc4C3)nc(=O)c2c(OC)c1OC` [Example 103, N,N-Dimethyl-N′-[2-(5,6,7-tri-methoxy-4-oxo-1,4-di-hydro-quinazolin-2-yl)-1,2,3,4-tetra-hydro-isoquinolin-7-yl]-acetamidine] gave a melting point of 115.8 to 120.1 °C.
With `COCCOc1c(OC)c(OC)cc2[nH]c(N3CCc4cc(OC)c(OC)cc4C3)nc(=O)c12` [Example 105, 2-(6,7-Dimethoxy-3,4-di-hydro-1H-isoquinolin-2-yl)-6,7-di-methoxy-5-(2-meth-oxy-ethoxy)-1H-quina-zolin-4-one] the melting point was 202.4 to 204.4 °C.
`COc1cc2c(cc1OC)CN(c1nc(=O)c3c(OCC4CC4)c(OC)c(OC)cc3[nH]1)CC2` [Example 108, 5-Cyclopropylmethoxy-2-(6,7-di-methoxy-3,4-di-hydro-1H-isoquinolin-2-yl)-6,7-di-methoxy-1H-quinazolin-4-one] showed a melting point of 214 to 215.8 °C.
Work on `COc1cc2c(cc1OC)CN(c1nc(=O)c3c(OCCO)c(OC)c(OC)cc3[nH]1)CC2` [Example 111, 2-(6,7-Dimethoxy-3,4-di-hydro-1H-isoquinolin-2-yl)-5-(2-hy-droxy-ethoxy)-6,7-di-methoxy-1H-quinazolin-4-one] yielded a melting point of 224 to 229 °C.
Work on `COc1cc2c(cc1OC)CN(c1nc(=O)c3c(OCCOCc4ccccc4)c(OC)c(OC)cc3[nH]1)CC2` [Example 112, 5-(2-Benzyloxy-ethoxy)-2-(6,7-di-methoxy-3,4-di-hydro-1H-isoquinolin-2-yl)-6,7-di-methoxy-1H-quinazolin-4-one] yielded a melting point of 197 to 201.9 °C.
`COc1cc2c(cc1OC)CN(c1nc(=O)c3c(Oc4ccccc4)c(OC)c(OC)cc3[nH]1)CC2` [Example 113, 2-(6,7-Dimethoxy-3,4-di-hydro-1H-isoquinolin-2-yl)-6,7-di-methoxy-5-phe-noxy-1H-quinazolin-4-one] gave a melting point of 238.7 to 241.9 °C.
